One assay relates to native geph. Put plainly: µSPOT peptide microarray binding assay with native geph from mouse brain lysate. As to conditions: normalized to most prominent spot, n = 2 array-internal duplicate.
For a further assay, the system named is gephE. Put plainly: µSPOT peptide microarray binding assay with recombinant gephE. The following applies: normalized to most prominent spot, n = 2 array-internal duplicate.
Setting [1] is: overlapping GlyR β peptide library on µSPOT array, 3% mouse brain lysate.
[2] abbreviates: overlapping GlyR β peptide library on µSPOT array, 50 nM gephE, anti-gephyrin 3B11/HRP chemiluminescence.
[3] abbreviates: overlapping GABAAR α3 peptide library on µSPOT array, 6% mouse brain lysate.
The mark [4] stands for this setting: overlapping GABAAR α3 peptide library on µSPOT array, 20 nM gephE.

“LGKPQAKNKKPPPAKPVIPT [Glycine receptor subunit beta_034, GlyR β residues 448-467]”: the “Native geph Binding Intensity [norm.]” value with native geph (setting [1]) is given as 0.061 norm. Besides, the “gephE Binding Intensity [norm.]” value with gephE (setting [2]) came to 0.022 norm.
The like results for “LRSNDFSIVGSLPRDFELSN [Glycine receptor subunit beta_023, GlyR β residues 415-434]” were, in that order, 1.000 norm and 1.000 norm.
Taken in the same sequence, the figures for “NAAKKNTVNGTGTPVHISTL [Glycine receptor subunit beta_011, GlyR β residues 379-398]” were 0.077 norm and 0.011 norm.
The like results for “NDFSIVGSLPRDFELSNYDC [Glycine receptor subunit beta_024, GlyR β residues 418-437]” were, in that order, 0.561 norm and 0.599 norm.
Consider “NIVGTTYPINLAKDTEFSTI [GABAAR α3 residues 396-415, µSpot library]”, for which the “Native geph Binding Intensity [norm.]” value with native geph (setting [3]) turned out to be 0.114 norm. In addition, the “gephE Binding Intensity [norm.]” value in the assay on gephE (setting [4]) is 0.044 norm.
Regarding “NLAKDTEFSTISKSAAAPSA [GABAAR α3 residues 405-424, µSpot library]”, in the assay on native geph (setting [3]), the “Native geph Binding Intensity [norm.]” value is reported as 0.122 norm. Besides, the “gephE Binding Intensity [norm.]” value in the assay with gephE (setting [4]) is recorded as 0.029 norm.
On to “NNGLGKPQAKNKKPPPAKPV [Glycine receptor subunit beta_033, GlyR β residues 445-464]”, for which, in the assay on native geph (setting [1]), the “Native geph Binding Intensity [norm.]” value was 0.041 norm. In addition, the “gephE Binding Intensity [norm.]” value in the assay on gephE (setting [2]) was found to be 0.055 norm.
“NNPKRVEAEKARIAKAEQAD [Glycine receptor subunit beta_003, GlyR β residues 355-374]”: the “Native geph Binding Intensity [norm.]” value in the assay on native geph (setting [1]) is recorded as 0.109 norm. Besides, the “gephE Binding Intensity [norm.]” value in the assay with gephE (setting [2]) came out at 0.023 norm.
With “NYFTKRSWAWEGKKVPEALE [GABAAR α3 residues 360-379, µSpot library]”, the “Native geph Binding Intensity [norm.]” value in the assay on native geph (setting [3]) is 0.048 norm. Moreover, the “gephE Binding Intensity [norm.]” value in the assay on gephE (setting [4]) is on record as 0.062 norm.
Taken in the same sequence, the figures for “PEALEMKKKTPAAPTKKNTT [GABAAR α3 residues 375-394, µSpot library]” were 0.071 norm and 0.038 norm.
Take “PQAKNKKPPPAKPVIPTAAK [Glycine receptor subunit beta_035, GlyR β residues 451-470]”: in the assay on native geph (setting [1]), the “Native geph Binding Intensity [norm.]” value is recorded as 0.087 norm. For the same sequence, the “gephE Binding Intensity [norm.]” value in the assay with gephE (setting [2]) stood at 0.012 norm.
The like results for “PRDFELSNYDCYGKPIEVNN [Glycine receptor subunit beta_027, GlyR β residues 427-446]” were, in that order, 0.521 norm and 0.428 norm.
For the sequence “SASSTPTAIASPKATYVQDS [GABAAR α3 residues 423-442, µSpot library]”, in the assay with native geph (setting [3]), the “Native geph Binding Intensity [norm.]” value is reported as 0.075 norm. Besides, the “gephE Binding Intensity [norm.]” value with gephE (setting [4]) came out at 0.022 norm.
For the sequence “SIVGSLPRDFELSNYDCYGK [Glycine receptor subunit beta_025, GlyR β residues 421-440]”, in the assay with native geph (setting [1]), the “Native geph Binding Intensity [norm.]” value was 0.301 norm. Also, the “gephE Binding Intensity [norm.]” value in the assay on gephE (setting [2]) came out at 0.291 norm.
As for “SNYDCYGKPIEVNNGLGKPQ [Glycine receptor subunit beta_029, GlyR β residues 433-452]”, the “Native geph Binding Intensity [norm.]” value in the assay on native geph (setting [1]) is reported as 0.204 norm. For the same sequence, the “gephE Binding Intensity [norm.]” value with gephE (setting [2]) was 0.216 norm.
“STPTAIASPKATYVQDSPAE [GABAAR α3 residues 426-445, µSpot library]”: the “Native geph Binding Intensity [norm.]” value in the assay with native geph (setting [3]) is 0.067 norm. Further, the “gephE Binding Intensity [norm.]” value with gephE (setting [4]) stood at 0.019 norm.
Taken in the same sequence, the figures for SWAWEGKKVPEALEMKKKTP were 0.118 norm and 0.064 norm.
The like results for “TAIASPKATYVQDSPAETKT [GABAAR α3 residues 429-448, µSpot library]” were, in that order, 0.060 norm and 0.018 norm.
Taken in the same sequence, the figures for “TISKSAAAPSASSTPTAIAS [GABAAR α3 residues 414-433, µSpot library]” were 0.116 norm and 0.024 norm.
Turning to TKRSWAWEGKKVPEALEMKK, the “Native geph Binding Intensity [norm.]” value with native geph (setting [3]) amounted to 0.033 norm. Also, the “gephE Binding Intensity [norm.]” value in the assay on gephE (setting [4]) stood at 0.049 norm.
For the sequence “TLQVGETRCKKVCTSKSDLR [Glycine receptor subunit beta_017, GlyR β residues 397-416]”, the “Native geph Binding Intensity [norm.]” value in the assay on native geph (setting [1]) was 0.054 norm. Besides, the “gephE Binding Intensity [norm.]” value in the assay with gephE (setting [2]) was determined as 0.016 norm.
With “TPAAPTKKNTTFNIVGTTYP [GABAAR α3 residues 384-403, µSpot library]”, the “Native geph Binding Intensity [norm.]” value with native geph (setting [3]) is listed as 1.000 norm. For the same sequence, the “gephE Binding Intensity [norm.]” value with gephE (setting [4]) was found to be 0.948 norm.
As to “TPVHISTLQVGETRCKKVCT [Glycine receptor subunit beta_015, GlyR β residues 391-410]”, the “Native geph Binding Intensity [norm.]” value in the assay with native geph (setting [1]) was 0.060 norm. For the same sequence, in the assay with gephE (setting [2]), the “gephE Binding Intensity [norm.]” value is 0.013 norm.
The like results for “TRCKKVCTSKSDLRSNDFSI [Glycine receptor subunit beta_019, GlyR β residues 403-422]” were, in that order, 0.089 norm and 0.033 norm.
As for “TTFNIVGTTYPINLAKDTEF [GABAAR α3 residues 393-412, µSpot library]”, the “Native geph Binding Intensity [norm.]” value in the assay on native geph (setting [3]) is 0.538 norm. In addition, in the assay on gephE (setting [4]), the “gephE Binding Intensity [norm.]” value is 0.457 norm.
Consider “TVNGTGTPVHISTLQVGETR [Glycine receptor subunit beta_013]”, for which the “Native geph Binding Intensity [norm.]” value in the assay with native geph (setting [1]) came to 0.087 norm. Also, the “gephE Binding Intensity [norm.]” value with gephE (setting [2]) is recorded as 0.008 norm.
The like results for “VGETRCKKVCTSKSDLRSND [Glycine receptor subunit beta_018, GlyR β residues 400-419]” were, in that order, 0.074 norm and 0.011 norm.
Taken in the same sequence, the figures for “VMLNNPKRVEAEKARIAKAE [Glycine receptor subunit beta_002, GlyR β residues 352-371]” were 0.082 norm and 0.010 norm.
Taken in the same sequence, the figures for “VVQVMLNNPKRVEAEKARIA [Glycine receptor subunit beta_001, GlyR β residues 349-368]” were 0.081 norm and 0.017 norm.
Consider “WEGKKVPEALEMKKKTPAAP [GABAAR α3 residues 369-388, µSpot library]”, for which the “Native geph Binding Intensity [norm.]” value in the assay on native geph (setting [3]) came to 0.105 norm. Moreover, the “gephE Binding Intensity [norm.]” value in the assay with gephE (setting [4]) came out at 0.048 norm.
As for “YPINLAKDTEFSTISKSAAA [GABAAR α3 residues 402-421, µSpot library]”, the “Native geph Binding Intensity [norm.]” value in the assay with native geph (setting [3]) is on record as 0.114 norm. Besides, the “gephE Binding Intensity [norm.]” value in the assay on gephE (setting [4]) is given as 0.039 norm.
Taken in the same sequence, the figures for “YVQDSPAETKTYNSVSKVDK [GABAAR α3 residues 438-457, µSpot library]” were 0.058 norm and 0.073 norm.
